Test results taken from ChEMBL document CHEMBL1201862, “PubChem BioAssay data set” (2004).
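Method: 48-hour compound exposure of cells in 96-well plates, five concentrations, linear interpolation of endpoints. GI50 marks 50% less growth.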 Activity calls are given as the source filed them. No stated cut-off is given here; in the data, active = GI50 up to about 1.1 µM and inactive = higher.

What was measured:
Assay in all cases: NCI anticancer screen, dose series, 48 h
[1] = system: KM12
[2] = system: OVCAR-5
[3] = system: MOLT-4
[4] = system: NCI-H522
[5] = system: K562
[6] = system: M14
[7] = system: SF-268
[8] = system: HOP-92
[9] = system: BT-549
[10] = system: OVCAR-3
[11] = system: LOX IMVI
[12] = system: PC-3
[13] = system: SK-MEL-28
[14] = system: SNB-19
[15] = system: SK-OV-3
[16] = system: HT-29
[17] = system: HOP-62
[18] = system: SN12C
[19] = system: CCRF-CEM
[20] = system: ACHN
[21] = system: OVCAR-8
[22] = system: SF-539
[23] = system: U-251
[24] = system: 786-0
[25] = system: NCI-H23
[26] = system: NCI-H226
[27] = system: A549
[28] = system: NCI/ADR-RES
[29] = system: RXF 393
[30] = system: HL-60
[31] = system: T47D
[32] = system: COLO 205
[33] = system: SF-295
[34] = system: SK-MEL-5
[35] = system: SK-MEL-2
[36] = system: UACC-62
[37] = system: UO-31
[38] = system: NCI-H460
[39] = system: OVCAR-4
[40] = system: Hs-578T
[41] = system: TK-10
[42] = system: MDA-MB-435
[43] = system: SR
[44] = system: MDA-N
[45] = system: MCF7
[46] = system: IGROV-1
[47] = system: Malme-3M
[48] = system: HCT-116
[49] = system: RPMI-8226
[50] = system: DU-145
[51] = system: HCC 2998
[52] = system: UACC-257
[53] = system: SW-620
[54] = system: SNB-75
[55] = system: EKVX
[56] = system: HCT-15
[57] = system: MDA-MB-231
[58] = system: CAKI-1

c1ccc(CN2CCC(=NN3CCCCC3)CC2)cc1
GI50 [1]: 78.3 µM (inactive)
GI50 [2]: > 100 µM (inactive)
GI50 [3]: 39.4 µM (inactive)
GI50 [4]: 54.6 µM (inactive)
GI50 [5]: 31.1 µM (inactive)
GI50 [6]: > 100 µM (inactive)
GI50 [7]: 88.1 µM (inactive)
GI50 [8]: 16.2 µM (inactive)
GI50 [9]: 43.5 µM (inactive)
GI50 [10]: 44.2 µM (inactive)
GI50 [11]: 70.6 µM (inactive)
GI50 [12]: 54.8 µM (inactive)
GI50 [13]: > 100 µM (inactive)
GI50 [14]: > 100 µM (inactive)
GI50 [15]: > 100 µM (inactive)
GI50 [16]: 32.4 µM (inactive)
GI50 [17]: > 100 µM (inactive)
GI50 [18]: > 100 µM (inactive)
GI50 [19]: 31.8 µM (inactive)
GI50 [20]: > 100 µM (inactive)
GI50 [21]: 65.2 µM (inactive)
GI50 [22]: > 100 µM (inactive)
GI50 [23]: 59.6 µM (inactive)
GI50 [24]: > 100 µM (inactive)
GI50 [25]: 78.2 µM (inactive)
GI50 [26]: > 100 µM (inactive)
GI50 [27]: > 100 µM (inactive)
GI50 [28]: > 100 µM (inactive)
GI50 [29]: 35.1 µM (inactive)
GI50 [30]: 20.1 µM (inactive)
GI50 [31]: 37.1 µM (inactive)
GI50 [32]: 28.1 µM (inactive)
GI50 [33]: > 100 µM (inactive)
GI50 [34]: 30.3 µM (inactive)
GI50 [35]: > 100 µM (inactive)
GI50 [36]: > 100 µM (inactive)
GI50 [37]: 64.7 µM (inactive)
GI50 [38]: 46.6 µM (inactive)
GI50 [39]: > 100 µM (inactive)
GI50 [40]: 35 µM (inactive)
GI50 [41]: 86.7 µM (inactive)
GI50 [42]: 72.8 µM (inactive)
GI50 [43]: 34.4 µM (inactive)
GI50 [44]: 83 µM (inactive)
GI50 [45]: 43.3 µM (inactive)
GI50 [46]: > 100 µM (inactive)
GI50 [47]: > 100 µM (inactive)
GI50 [48]: 64.1 µM (inactive)
GI50 [49]: 27.7 µM (inactive)
GI50 [50]: > 100 µM (inactive)
GI50 [51]: 51.1 µM (inactive)
GI50 [52]: 47.1 µM (inactive)
GI50 [53]: > 100 µM (inactive)
GI50 [54]: 61.2 µM (inactive)
GI50 [55]: > 100 µM (inactive)
GI50 [56]: > 100 µM
GI50 [57]: 43.3 µM (inactive)
GI50 [58]: > 100 µM (inactive)

CCOP(=O)(OCC)C(C)(C)OC(=O)NC#N
GI50 [1]: > 100 µM (inactive)
GI50 [2]: > 100 µM (inactive)
GI50 [3]: > 100 µM (inactive)
GI50 [5]: > 100 µM (inactive)
GI50 [6]: > 100 µM (inactive)
GI50 [7]: > 100 µM (inactive)
GI50 [8]: > 100 µM (inactive)
GI50 [9]: 79.6 µM (inactive)
GI50 [10]: > 100 µM (inactive)
GI50 [11]: > 100 µM (inactive)
GI50 [12]: > 100 µM (inactive)
GI50 [13]: > 100 µM (inactive)
GI50 [14]: > 100 µM (inactive)
GI50 [15]: > 100 µM (inactive)
GI50 [16]: > 100 µM (inactive)
GI50 [17]: > 100 µM (inactive)
GI50 [18]: > 100 µM (inactive)
GI50 [19]: > 100 µM (inactive)
GI50 [20]: > 100 µM (inactive)
GI50 [21]: > 100 µM (inactive)
GI50 [22]: > 100 µM (inactive)
GI50 [23]: > 100 µM (inactive)
GI50 [24]: > 100 µM (inactive)
GI50 [25]: > 100 µM (inactive)
GI50 [26]: > 100 µM (inactive)
GI50 [27]: > 100 µM (inactive)
GI50 [28]: > 100 µM (inactive)
GI50 [29]: > 100 µM (inactive)
GI50 [30]: > 100 µM (inactive)
GI50 [31]: > 100 µM (inactive)
GI50 [32]: > 100 µM (inactive)
GI50 [33]: > 100 µM (inactive)
GI50 [34]: > 100 µM (inactive)
GI50 [35]: > 100 µM (inactive)
GI50 [36]: > 100 µM (inactive)
GI50 [37]: > 100 µM (inactive)
GI50 [38]: > 100 µM (inactive)
GI50 [39]: > 100 µM (inactive)
GI50 [40]: > 100 µM (inactive)
GI50 [41]: > 100 µM (inactive)
GI50 [42]: > 100 µM (inactive)
GI50 [43]: > 100 µM (inactive)
GI50 [44]: > 100 µM (inactive)
GI50 [45]: > 100 µM (inactive)
GI50 [46]: > 100 µM (inactive)
GI50 [47]: > 100 µM (inactive)
GI50 [48]: > 100 µM (inactive)
GI50 [49]: > 100 µM (inactive)
GI50 [50]: > 100 µM (inactive)
GI50 [51]: > 100 µM (inactive)
GI50 [52]: > 100 µM (inactive)
GI50 [53]: > 100 µM (inactive)
GI50 [54]: > 100 µM (inactive)
GI50 [55]: > 100 µM (inactive)
GI50 [56]: > 100 µM
GI50 [57]: > 100 µM (inactive)
GI50 [58]: > 100 µM (inactive)

COc1cc(/C=C/C=C2\CCC/C(=C\C=C\c3ccc(O)c(OC)c3)C2=O)ccc1O
GI50 [1]: 24.7 µM (inactive)
GI50 [2]: 22 µM (inactive)
GI50 [3]: 1.01 µM (active)
GI50 [4]: 0.895 µM (active)
GI50 [5]: 3.06 µM (inactive)
GI50 [6]: 18.2 µM (inactive)
GI50 [7]: 5.53 µM (inactive)
GI50 [8]: 12 µM (inactive)
GI50 [9]: 17.2 µM (inactive)
GI50 [10]: 9.12 µM (inactive)
GI50 [11]: 7.91 µM (inactive)
GI50 [12]: 6.58 µM (inactive)
GI50 [13]: 12.6 µM (inactive)
GI50 [14]: 31.7 µM (inactive)
GI50 [15]: 5.81 µM (inactive)
GI50 [16]: 6.04 µM (inactive)
GI50 [17]: 17.3 µM (inactive)
GI50 [18]: 17.3 µM (inactive)
GI50 [19]: 0.991 µM (active)
GI50 [20]: 4.08 µM (inactive)
GI50 [21]: 12.6 µM (inactive)
GI50 [22]: 17.5 µM (inactive)
GI50 [23]: 17.7 µM (inactive)
GI50 [24]: 10 µM (inactive)
GI50 [25]: 11.7 µM (inactive)
GI50 [27]: 4.85 µM (inactive)
GI50 [28]: 12.2 µM (inactive)
GI50 [29]: 10.8 µM (inactive)
GI50 [30]: 7.13 µM (inactive)
GI50 [31]: 8.32 µM (inactive)
GI50 [32]: 18.6 µM (inactive)
GI50 [33]: 4.74 µM (inactive)
GI50 [34]: 10.3 µM (inactive)
GI50 [35]: 21.2 µM (inactive)
GI50 [36]: 7.55 µM (inactive)
GI50 [37]: 12 µM (inactive)
GI50 [38]: 13.8 µM (inactive)
GI50 [39]: 6.27 µM (inactive)
GI50 [40]: 19.5 µM (inactive)
GI50 [41]: 8.34 µM (inactive)
GI50 [42]: 9.57 µM (inactive)
GI50 [43]: 1.69 µM (inactive)
GI50 [44]: 3.91 µM (inactive)
GI50 [45]: 5.24 µM (inactive)
GI50 [46]: 6.7 µM (inactive)
GI50 [47]: 10.6 µM (inactive)
GI50 [48]: 10.5 µM (inactive)
GI50 [49]: 5.4 µM (inactive)
GI50 [50]: 14.7 µM (inactive)
GI50 [51]: 13.2 µM (inactive)
GI50 [52]: 12.1 µM (inactive)
GI50 [53]: 6.84 µM (inactive)
GI50 [54]: 26.7 µM (inactive)
GI50 [55]: 7.36 µM (inactive)
GI50 [56]: 13.6 µM
GI50 [57]: 39.1 µM (inactive)
GI50 [58]: 7.23 µM (inactive)
